Where a name gives a salt, the structure may show the parent alone.
Experiments:
Format in all cases: biochemical
PI3Kδ = PI3Kδ (Homo sapiens (Human), UniProt O00329); assay: TR-FRET enzymatic assay of PI3K isoforms (PI3Kδ); settings: 2×Km ATP, 2 μM PIP2, incubated for 30 minutes at 25° C., read-out: δ IC50
Procedure: (§1) The compounds of formula (I) were characterized for their enzymatic activity against the PI3K isoforms. Certain compounds of the present application, including certain compounds of formula (II) and (III) were also characterized for their enzymatic activity against PI3K isoforms. The activities were measured using a time-resolved fluorescence resonance energy transfer (TR-FRET) assay.

PI3Kγ = PI3Kγ (Homo sapiens (Human), UniProt P48736); assay: TR-FRET enzymatic assay of PI3K isoforms (PI3Kγ); settings: TR-FRET, 2×Km ATP, 2 μM PIP2, PI3Kγ at 2 nM, incubated for 30 minutes at 25° C.; read-out: γ IC50
Procedure: as §1

PI3Kβ = PI3Kβ (Homo sapiens (Human), UniProt P42338); assay: TR-FRET enzymatic assay of PI3K isoforms (PI3Kβ); settings: TR-FRET, 2×Km ATP, 2 μM PIP2, incubated for 30 minutes at 25° C.; read-out: β IC50
Procedure: as §1

Chain of PI3Kβ (P42338 whole entry, canonical isoform): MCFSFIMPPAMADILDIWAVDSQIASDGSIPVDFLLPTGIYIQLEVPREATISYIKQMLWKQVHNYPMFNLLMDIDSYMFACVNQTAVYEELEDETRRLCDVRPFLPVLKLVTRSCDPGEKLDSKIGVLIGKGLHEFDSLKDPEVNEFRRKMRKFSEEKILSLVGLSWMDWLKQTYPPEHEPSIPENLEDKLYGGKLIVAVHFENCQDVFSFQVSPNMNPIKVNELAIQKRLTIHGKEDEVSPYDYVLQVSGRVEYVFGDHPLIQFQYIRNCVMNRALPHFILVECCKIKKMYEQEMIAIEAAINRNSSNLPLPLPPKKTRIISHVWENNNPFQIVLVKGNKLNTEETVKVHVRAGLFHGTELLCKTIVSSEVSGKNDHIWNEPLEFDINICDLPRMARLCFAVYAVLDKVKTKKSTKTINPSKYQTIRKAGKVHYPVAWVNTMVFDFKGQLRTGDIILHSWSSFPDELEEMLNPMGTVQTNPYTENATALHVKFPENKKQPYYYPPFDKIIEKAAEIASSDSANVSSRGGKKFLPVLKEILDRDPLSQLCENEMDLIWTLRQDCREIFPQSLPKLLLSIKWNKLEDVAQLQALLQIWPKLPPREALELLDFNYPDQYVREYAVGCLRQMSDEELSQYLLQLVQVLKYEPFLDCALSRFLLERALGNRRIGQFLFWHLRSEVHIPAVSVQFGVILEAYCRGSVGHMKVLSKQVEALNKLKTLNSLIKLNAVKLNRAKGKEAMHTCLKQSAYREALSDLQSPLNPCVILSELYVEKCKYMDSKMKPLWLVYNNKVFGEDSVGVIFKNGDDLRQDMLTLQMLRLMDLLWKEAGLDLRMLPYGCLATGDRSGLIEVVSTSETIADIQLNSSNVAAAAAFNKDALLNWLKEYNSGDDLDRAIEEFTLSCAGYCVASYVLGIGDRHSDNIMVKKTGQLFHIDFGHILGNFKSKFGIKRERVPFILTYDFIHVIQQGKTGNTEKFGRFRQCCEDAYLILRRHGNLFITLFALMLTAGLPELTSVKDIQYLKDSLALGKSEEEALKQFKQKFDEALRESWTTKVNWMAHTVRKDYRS
Chain of PI3Kβ (P27986 whole entry partner, canonical isoform): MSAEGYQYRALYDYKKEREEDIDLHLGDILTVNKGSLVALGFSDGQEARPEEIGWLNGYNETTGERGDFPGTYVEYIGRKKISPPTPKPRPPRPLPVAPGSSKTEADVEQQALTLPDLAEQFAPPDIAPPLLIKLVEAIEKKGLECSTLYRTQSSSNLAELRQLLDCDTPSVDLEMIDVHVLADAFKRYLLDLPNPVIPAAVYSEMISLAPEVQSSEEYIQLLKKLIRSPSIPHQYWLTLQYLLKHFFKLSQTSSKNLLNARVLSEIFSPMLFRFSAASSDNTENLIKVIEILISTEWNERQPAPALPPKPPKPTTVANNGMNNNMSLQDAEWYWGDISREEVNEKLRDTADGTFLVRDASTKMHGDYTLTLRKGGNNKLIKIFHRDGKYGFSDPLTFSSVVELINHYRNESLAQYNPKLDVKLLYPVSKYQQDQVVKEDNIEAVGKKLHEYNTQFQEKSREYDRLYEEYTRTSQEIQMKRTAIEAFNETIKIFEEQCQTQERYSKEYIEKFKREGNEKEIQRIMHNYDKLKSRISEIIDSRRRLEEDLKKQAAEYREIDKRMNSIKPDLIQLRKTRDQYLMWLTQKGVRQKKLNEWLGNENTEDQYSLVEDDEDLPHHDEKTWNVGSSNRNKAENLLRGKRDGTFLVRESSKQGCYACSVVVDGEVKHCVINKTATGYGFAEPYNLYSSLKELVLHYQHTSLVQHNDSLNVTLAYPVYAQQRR
Chain of PI3Kδ (O00329 whole entry, canonical isoform): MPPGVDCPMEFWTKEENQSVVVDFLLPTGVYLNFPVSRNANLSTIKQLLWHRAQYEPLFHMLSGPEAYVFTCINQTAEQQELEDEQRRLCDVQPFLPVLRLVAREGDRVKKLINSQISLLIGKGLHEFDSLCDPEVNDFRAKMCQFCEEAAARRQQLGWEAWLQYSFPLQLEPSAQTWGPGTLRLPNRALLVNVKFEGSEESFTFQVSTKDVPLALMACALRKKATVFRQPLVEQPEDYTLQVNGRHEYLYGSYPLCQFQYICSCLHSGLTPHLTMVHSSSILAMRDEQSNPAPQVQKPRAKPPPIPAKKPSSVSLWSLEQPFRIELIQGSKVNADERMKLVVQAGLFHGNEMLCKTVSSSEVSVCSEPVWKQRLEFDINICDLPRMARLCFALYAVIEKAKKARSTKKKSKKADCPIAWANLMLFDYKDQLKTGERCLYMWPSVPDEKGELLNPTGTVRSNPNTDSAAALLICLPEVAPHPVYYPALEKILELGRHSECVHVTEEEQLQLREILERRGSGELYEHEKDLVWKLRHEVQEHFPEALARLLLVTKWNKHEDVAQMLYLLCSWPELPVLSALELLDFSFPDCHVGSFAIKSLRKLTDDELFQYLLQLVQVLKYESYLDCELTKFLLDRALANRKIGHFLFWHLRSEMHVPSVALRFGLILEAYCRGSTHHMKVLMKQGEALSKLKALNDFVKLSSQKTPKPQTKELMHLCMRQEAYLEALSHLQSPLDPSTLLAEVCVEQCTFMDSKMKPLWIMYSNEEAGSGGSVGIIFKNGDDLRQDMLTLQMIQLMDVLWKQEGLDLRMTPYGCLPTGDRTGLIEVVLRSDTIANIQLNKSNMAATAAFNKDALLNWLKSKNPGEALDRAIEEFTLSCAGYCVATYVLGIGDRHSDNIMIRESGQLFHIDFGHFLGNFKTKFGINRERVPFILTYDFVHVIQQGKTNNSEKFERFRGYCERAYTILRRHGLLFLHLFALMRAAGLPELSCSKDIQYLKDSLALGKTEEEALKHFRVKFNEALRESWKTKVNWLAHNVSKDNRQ
Chain of PI3Kδ (P27986 whole entry partner, canonical isoform): as the sequence (P27986 whole entry partner, canonical isoform) above
Chain of PI3Kγ (P48736 whole entry, canonical isoform): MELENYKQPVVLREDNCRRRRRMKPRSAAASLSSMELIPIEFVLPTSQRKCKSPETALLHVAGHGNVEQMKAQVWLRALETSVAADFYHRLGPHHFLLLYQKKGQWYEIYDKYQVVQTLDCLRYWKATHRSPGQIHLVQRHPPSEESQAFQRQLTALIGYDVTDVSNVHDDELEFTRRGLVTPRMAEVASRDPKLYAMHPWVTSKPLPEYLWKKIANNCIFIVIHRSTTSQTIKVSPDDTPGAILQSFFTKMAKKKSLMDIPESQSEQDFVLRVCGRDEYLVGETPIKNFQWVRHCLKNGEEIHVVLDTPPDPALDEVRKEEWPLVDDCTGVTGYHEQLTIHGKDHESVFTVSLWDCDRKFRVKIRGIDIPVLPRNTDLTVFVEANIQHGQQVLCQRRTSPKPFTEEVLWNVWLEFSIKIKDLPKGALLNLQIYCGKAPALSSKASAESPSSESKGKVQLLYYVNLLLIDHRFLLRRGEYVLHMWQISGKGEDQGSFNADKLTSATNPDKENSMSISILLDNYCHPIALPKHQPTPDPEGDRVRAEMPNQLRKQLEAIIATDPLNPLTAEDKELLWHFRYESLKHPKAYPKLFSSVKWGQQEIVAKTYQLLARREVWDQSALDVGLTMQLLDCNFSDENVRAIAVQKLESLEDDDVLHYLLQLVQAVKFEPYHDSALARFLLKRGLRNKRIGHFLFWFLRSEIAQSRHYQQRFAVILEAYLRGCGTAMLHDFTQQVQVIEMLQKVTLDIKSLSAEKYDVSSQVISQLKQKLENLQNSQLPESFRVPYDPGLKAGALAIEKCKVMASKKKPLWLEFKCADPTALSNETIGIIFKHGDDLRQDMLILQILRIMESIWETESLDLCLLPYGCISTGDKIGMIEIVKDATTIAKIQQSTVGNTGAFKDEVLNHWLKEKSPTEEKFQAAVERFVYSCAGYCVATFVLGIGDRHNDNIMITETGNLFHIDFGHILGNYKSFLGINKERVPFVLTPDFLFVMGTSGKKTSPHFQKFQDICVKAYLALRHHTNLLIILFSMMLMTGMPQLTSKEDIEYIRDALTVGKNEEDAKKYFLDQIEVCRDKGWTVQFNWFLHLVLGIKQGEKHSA
Chain of PI3Kγ (Q8WYR1 whole entry partner, canonical isoform): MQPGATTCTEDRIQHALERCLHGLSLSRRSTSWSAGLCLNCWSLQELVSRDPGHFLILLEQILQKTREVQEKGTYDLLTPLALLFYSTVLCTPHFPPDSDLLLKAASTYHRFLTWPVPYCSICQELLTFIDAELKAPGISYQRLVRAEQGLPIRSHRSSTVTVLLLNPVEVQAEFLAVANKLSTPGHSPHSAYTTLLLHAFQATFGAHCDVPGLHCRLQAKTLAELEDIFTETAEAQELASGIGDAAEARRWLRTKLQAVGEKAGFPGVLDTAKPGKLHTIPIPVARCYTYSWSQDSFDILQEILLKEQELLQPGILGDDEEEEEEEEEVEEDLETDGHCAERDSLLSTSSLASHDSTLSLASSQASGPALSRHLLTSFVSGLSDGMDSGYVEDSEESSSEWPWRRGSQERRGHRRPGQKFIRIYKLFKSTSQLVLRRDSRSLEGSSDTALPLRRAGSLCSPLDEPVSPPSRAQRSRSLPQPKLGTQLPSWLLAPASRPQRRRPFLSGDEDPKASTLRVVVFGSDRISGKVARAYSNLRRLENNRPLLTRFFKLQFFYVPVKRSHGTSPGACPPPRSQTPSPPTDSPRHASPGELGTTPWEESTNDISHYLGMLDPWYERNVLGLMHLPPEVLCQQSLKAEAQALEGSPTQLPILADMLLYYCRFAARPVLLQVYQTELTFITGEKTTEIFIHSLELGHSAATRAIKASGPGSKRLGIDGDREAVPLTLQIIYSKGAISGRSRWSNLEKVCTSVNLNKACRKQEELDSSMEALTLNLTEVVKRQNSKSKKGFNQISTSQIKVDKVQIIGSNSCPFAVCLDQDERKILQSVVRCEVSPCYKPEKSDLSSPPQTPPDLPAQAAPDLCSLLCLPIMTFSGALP

Structure (SMILES)	IC50 (PI3Kδ) [nM]	IC50 (PI3Kγ) [nM]	IC50 (PI3Kβ) [nM]
C[C@H](Nc1ncnc(N)c1C#N)c1nc2c(Cl)cccc2c(=O)n1-c1cccc(NC(=O)NCCCO)c1 [Compound 65, (S)-1-(3-(2-(1-((6-amino-5-cyanopyrimidin-4-yl)amino)ethyl)-8-chloro-4-oxoquinazolin-3(4H)-yl)phenyl)-3-(3-hydroxypropyl)urea]	82	> 10000	220
C[C@H](Nc1ncnc(N)c1C#N)c1nc2c(F)cccc2c(=O)n1-c1cccc(NC(=O)NCCCO)c1 [Compound 68, (S)-1-(3-(2-(1-((6-amino-5-cyanopyrimidin-4-yl)amino)ethyl)-8-fluoro-4-oxoquinazolin-3(4H)-yl)phenyl)-3-(3-hydroxypropyl)urea]	130	> 10000	220
CCNC(=O)Nc1cccc(-n2c([C@H](C)Nc3ncnc(N)c3C#N)nc3cccc(C#N)c3c2=O)c1 [Compound 69, (S)-1-(3-(2-(1-((6-amino-5-cyanopyrimidin-4-yl)amino)ethyl)-5-cyano-4-oxoquinazolin-3(4H)-yl)phenyl)-3-ethylurea 2,2,2-trifluoroacetic acid salt]	8	5200	110
CCNC(=O)Nc1cccc(-n2c([C@H](C)Oc3ncnc(N)c3C#N)nc3cccc(Cl)c3c2=O)c1 [Compound 70, (S)-1-(3-(2-(1-((6-amino-5-cyanopyrimidin-4-yl)oxy)ethyl)-5-chloro-4-oxoquinazolin-3(4H)-yl)phenyl)-3-ethylurea]	2	1500	12
CCNC(=O)Nc1cccc(-n2c([C@H](C)Nc3ncnc4scnc34)nc3cccc(Cl)c3c2=O)c1 [Compound 72, (S)-1-(3-(5-chloro-4-oxo-2-(1-(thiazolo[5,4-d]pyrimidin-7-ylamino)ethyl)quinazolin-3(4H)-yl)phenyl)-3-ethylurea]	5	1300	4
CCNC(=O)Nc1cccc(-n2c([C@@H]3C[C@H](F)CN3c3ncnc(N)c3C#N)nc3cccc(Cl)c3c2=O)c1 [Compound 73, 1-(3-(2-((2S,4S)-1-(6-amino-5-cyanopyrimidin-4-yl)-4-fluoropyrrolidin-2-yl)-5-chloro-4-oxoquinazolin-3(4H)-yl)phenyl)-3-ethylurea]	17	5600	38
C[C@H](Nc1ncnc(N)c1C#N)c1nc2cccc(Cl)c2c(=O)n1-c1cccc(NC(=O)NC2(C(F)(F)F)CC2)c1 [Compound 75, (S)-1-(3-(2-(1-((6-amino-5-cyanopyrimidin-4-yl)amino)ethyl)-5-chloro-4-oxoquinazolin-3(4H)-yl)phenyl)-3-(1-(trifluoromethyl)cyclopropyl)urea]	9	> 10000	10
C[C@H](Nc1ncnc(N)c1C#N)c1nc2cccc(Cl)c2c(=O)n1-c1cccc(NC(=O)NCC(F)(F)F)c1 [Compound 76, (S)-1-(3-(2-(1-((6-amino-5-cyanopyrimidin-4-yl)amino)ethyl)-5-chloro-4-oxoquinazolin-3(4H)-yl)phenyl)-3-(2,2,2-trifluoroethyl)urea]	7	4400	5
CCNC(=O)Nc1cc(-n2c([C@H](C)Nc3ncnc(N)c3C#N)nc3cccc(Cl)c3c2=O)ccc1F [Compound 78, (S)-1-(5-(2-(1-((6-amino-5-cyanopyrimidin-4-yl)amino)ethyl)-5-chloro-4-oxoquinazolin-3(4H)-yl)-2-fluorophenyl)-3-ethylurea]	32	4900	16
C[C@H](Nc1ncnc(N)c1C#N)c1nc2cccc(Cl)c2c(=O)n1-c1cccc(NC(=O)NS(=O)(=O)C2CCCC2)c1 [Compound 79, (S)—N-((3-(2-(1-((6-amino-5-cyanopyrimidin-4-yl)amino)ethyl)-5-chloro-4-oxoquinazolin-3(4H)-yl)phenyl)carbamoyl)cyclopentanesulfonamide]	2	680	71
N#Cc1c(N)ncnc1N1CCC[C@H]1c1nc2cccc(Cl)c2c(=O)n1-c1cccc(NC(=O)NCC2OCCO2)c1 [Compound 82, (S)-1-((1,3-dioxolan-2-yl)methyl)-3-(3-(2-(1-(6-amino-5-cyanopyrimidin-4-yl)pyrrolidin-2-yl)-5-chloro-4-oxoquinazolin-3(4H)-yl)phenyl)urea]	16	8600	29
CCNC(=O)Nc1cccc(-n2c([C@@H]3CCCN3c3ncnc(N)c3C#N)nc3cccc(Cl)c3c2=O)c1 [Compound 83, (S)-1-(3-(2-(1-(6-amino-5-cyanopyrimidin-4-yl)pyrrolidin-2-yl)-5-chloro-4-oxoquinazolin-3(4H)-yl)phenyl)-3-ethylurea]	9	3300	13

Further compounds by falling IC50 (PI3Kδ), results first:

IC50 (PI3Kδ) [nM]	IC50 (PI3Kγ) [nM]	IC50 (PI3Kβ) [nM]	Structure (SMILES)
98	> 10000	38	C[C@H](Nc1ncnc(N)c1C#N)c1nc2c(F)ccc(F)c2c(=O)n1-c1cccc(NC(=O)NCCCO)c1 [Compound 67, (S)-1-(3-(2-(1-((6-amino-5-cyanopyrimidin-4-yl)amino)ethyl)-5,8-difluoro-4-oxoquinazolin-3(4H)-yl)phenyl)-3-(3-hydroxypropyl)urea]
27	9500	420	CC(C)NC(=O)Nc1cc(-n2c([C@H](C)Nc3ncnc(N)c3C#N)nc3cccc(Cl)c3c2=O)ccc1F [Compound 77, (S)-1-(5-(2-(1-((6-amino-5-cyanopyrimidin-4-yl)amino)ethyl)-5-chloro-4-oxoquinazolin-3(4H)-yl)-2-fluorophenyl)-3-isopropylurea]
9	3700	4	C[C@H](Nc1ncnc(N)c1C#N)c1nc2c(F)ccc(Cl)c2c(=O)n1-c1cccc(NC(=O)NCCCO)c1 [Compound 66, (S)-1-(3-(2-(1-((6-amino-5-cyanopyrimidin-4-yl)amino)ethyl)-5-chloro-8-fluoro-4-oxoquinazolin-3(4H)-yl)phenyl)-3-(3-hydroxypropyl)urea]
8	> 10000	7	C[C@H](Nc1ncnc(N)c1C#N)c1nc2c(Cl)ccc(Cl)c2c(=O)n1-c1cccc(NC(=O)NCCCO)c1 [Compound 64, (S)-1-(3-(2-(1-((6-amino-5-cyanopyrimidin-4-yl)amino)ethyl)-5,8-dichloro-4-oxoquinazolin-3(4H)-yl)phenyl)-3-(3-hydroxypropyl)urea]
2	2800	350	C[C@H](Nc1ncnc(N)c1C#N)c1nc2cccc(Cl)c2c(=O)n1-c1cccc(NC(=O)NS(=O)(=O)C2CC2)c1 [Compound 81, (S)—N-((3-(2-(1-((6-amino-5-cyanopyrimidin-4-yl)amino)ethyl)-5-chloro-4-oxoquinazolin-3(4H)-yl)phenyl)carbamoyl)cyclopropanesulfonamide]
0.9	250	120	C[C@H](Nc1ncnc2scnc12)c1nc2cccc(Cl)c2c(=O)n1-c1cccc(NC(=O)NS(=O)(=O)C2CCCC2)c1 [Compound 80, (S)—N-((3-(5-chloro-4-oxo-2-(1-(thiazolo[5,4-d]pyrimidin-7-ylamino)ethyl)quinazolin-3(4H)-yl)phenyl)carbamoyl)cyclopentanesulfonamide]

Source: patent publication US10221197B2, “Phosphatidylinositol 3-kinase inhibitors” (Gilead Sciences, Inc., priority 2014, dated 2019)
